Measurements from patent US11708360B2, “N-substituted-dioxocyclobutenylamino-3-hydroxy-picolinamides useful as CCR6 inhibitors” (Pfizer Inc., priority 2018, dated 2023).
Read-outs that look alike come from different tables or passages of the source.

What was measured:
CXCR2 = molecular target: T1, CXCR2 (Homo sapiens, UniProt P25025); test: Human Neutrophil Chemotaxis Assay; format: cell-based; set-up: Human neutrophils were purified from freshly drawn human whole blood; endogenous in cells; host or cells: primary human neutrophils from fresh whole blood
T1 sequence (P25025 1-360): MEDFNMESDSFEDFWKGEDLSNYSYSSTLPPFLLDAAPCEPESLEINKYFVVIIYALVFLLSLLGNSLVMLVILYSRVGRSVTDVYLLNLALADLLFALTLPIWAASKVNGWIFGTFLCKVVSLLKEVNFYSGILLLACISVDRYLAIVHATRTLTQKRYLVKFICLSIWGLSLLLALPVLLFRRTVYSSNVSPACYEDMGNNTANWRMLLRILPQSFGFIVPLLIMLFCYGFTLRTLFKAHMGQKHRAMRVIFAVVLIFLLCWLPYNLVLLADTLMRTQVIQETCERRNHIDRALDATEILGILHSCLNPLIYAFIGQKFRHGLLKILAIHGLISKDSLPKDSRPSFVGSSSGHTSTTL
Method: After 30 min, the labeled neutrophils were washed twice in chemotaxis buffer, resuspended as before and used immediately. For the assay, test compounds were tested in a dose-response format to determine IC50. Labeled neutrophils (50 μL) were pre-incubated with diluted test compound (50 μL) for 30 min in a 96-well plate (Greiner). Next, 100 μL of diluted compound was mixed with 100 μL of GROα (Peprotech #300-11, 2 nM) in the bottom portion of the chemotaxis chamber. The top portion (insert) of the chemotaxis system containing the FluoroBlok porous membrane was then assembled together. 50 μL of the pre-incubated neutrophils were added to the FluoroBlok insert (top portion) and chemotaxis measured by the neutrophils ability to migrate through the membrane towards the specific CXCR2 ligand, GROα.
IC50 values for compounds of the present invention (Table 12) were determined by the non-linear regression analysis of dose response curves.

CCR6 = molecular target: T2, CCR6 (Homo sapiens, UniProt P51684); test: CCR6+ T Cell Chemotaxis Assay; format: cell-based; conditions: for T Cell Chemotaxis Selectivity: Table 13, T cell chemotaxis compared to neutrophil chemotaxis; for T Cell Chemotaxis Selectivity / R = H, T Cell Chemotaxis Selectivity: NS = not selective for T cell chemotaxis compared to neutrophil chemotaxis
T2 construct: Human CD4+CCR6+CXCR3-T cells were isolated from leukopak from healthy donors; endogenous in cells
T2 sequence (P51684 1-374): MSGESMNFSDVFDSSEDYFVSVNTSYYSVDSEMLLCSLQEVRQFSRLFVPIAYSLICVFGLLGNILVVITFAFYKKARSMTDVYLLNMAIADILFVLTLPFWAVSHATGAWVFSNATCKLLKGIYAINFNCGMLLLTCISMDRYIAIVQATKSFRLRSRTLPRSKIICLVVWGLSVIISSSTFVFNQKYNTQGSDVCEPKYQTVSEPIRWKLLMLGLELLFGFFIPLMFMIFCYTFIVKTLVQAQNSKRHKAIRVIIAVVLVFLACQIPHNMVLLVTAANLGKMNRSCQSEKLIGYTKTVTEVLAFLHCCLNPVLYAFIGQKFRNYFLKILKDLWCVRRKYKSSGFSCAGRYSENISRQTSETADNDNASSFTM
Text: Human CD4+CCR6+CXCR3-T cells were isolated from leukopak from healthy donors using EasySep™ Human Th17 Cell Enrichment Kit. […] Day 4 post activation, Dynabeads were removed from the culture. The activated T cells were maintained at 1-2×10^6 cells/mL for 15 days by feeding fresh growth media when needed.
For IC50 determination, the top and bottom of the chemotaxis chamber contained the same concentration of compound. DMSO was kept constant at 0.1% (v/v) in all wells. The final concentration of CCL20 (Peprotech 300-29A) in the bottom chamber is 0.5 nM. The fully assembled chemotaxis plate was placed in a cell culture incubator at 37° C., 5% CO2 for 1 h. After incubation, the top filter was removed, followed by a quick freeze of the bottom chamber at −80° C. for 1 h. The migrated cells in the bottom chamber were stained with CyQUANT dye (Life Technologies, C7026) for cell number determination.
IC50 values for compounds of the present invention (Table 11) were determined by the non-linear regression analysis of dose response curves.

[1] = Table 12, human neutrophils migrating towards the CXCR2 ligand GROα, read-out: IC50
[2] = Table 11, human CD4+CCR6+CXCR3- T cells, CCL20 0.5 nM in bottom chamber, 1 h at 37° C., read-out: IC50
[3] = Table 14, R = H, read-out: R = H, IC50 (nM) CXCR2 Neutrophil, GROα Chemotaxis
[4] = Table 14, R = H, read-out: R = H, IC50 (nM) CCR6 T cell, CCL20 Chemotaxis

Structure (SMILES) | IC50 (CXCR2; [1]) [nM] | IC50 (CCR6; [2]) [nM] | T Cell Chemotaxis Selectivity (CCR6) | other results
Cc1nc([C@H](Nc2c(Nc3ccnc(C(=O)N(C)C)c3O)c(=O)c2=O)C(C)(C)C)c(C)s1 [Example 25, (R)-4-((2-((1-(2,5-Dimethylthiazol-4-yl)-2,2-dimethylpropyl)-amino)-3,4-dioxocyclobut-1-en-1-yl)amino)-3-hydroxy-N,N-dimethylpicolinamide] | 355 | 1.2 | 296 | 
CCc1cn(C)nc1[C@H](Nc1c(Nc2ccnc(C(=O)N(C)C)c2O)c(=O)c1=O)C1(C)CCC1 [Example 26, (R)-4-((2-(((4-Ethyl-1-methyl-1H-pyrazol-3-yl)(1-methylcyclobutyl)methyl)amino)-3,4-dioxocyclobut-1-en-1-yl)amino)-3-hydroxy-N,N-dimethylpicolinamide] | 142 | 3.3 | 43 | 
CCc1cn(C)nc1[C@H](Nc1c(Nc2ccnc(C(=O)N(C)C)c2O)c(=O)c1=O)C(C)(C)C [Example 27, (R)-4-((2-((1-(4-Ethyl-1-methyl-1H-pyrazol-3-yl)-2,2-dimethylpropyl)amino)-3,4-dioxocyclobut-1-en-1-yl)amino)-3-hydroxy-N,N-dimethylpicolinamide] | 52.6 | 13.2 | 4 | 
Cc1sc(CO)nc1[C@H](Nc1c(Nc2ccnc(C(=O)N(C)C)c2O)c(=O)c1=O)C1(C)CCCC1 [Example 28, (R)-3-Hydroxy-4-((2-(((2-(hydroxymethyl)-5-methylthiazol-4-yl)(1-methylcyclopentyl)methyl)amino)-3,4-dioxocyclobut-1-en-1-yl)amino)-N,N-dimethylpicolinamide] | 2190 | 36.7 | 60 | 
CN(C)C(=O)c1nccc(Nc2c(N[C@@H](c3nn(C)cc3C3CC3)C3(C)CCCC3)c(=O)c2=O)c1O [Example 29, (R)-4-((2-(((4-Cyclopropyl-1-methyl-1H-pyrazol-3-yl)(1-methylcyclopentyl)methyl)amino)-3,4-dioxocyclobut-1-en-1-yl)amino)-3-hydroxy-N,N-dimethylpicolinamide] | 4410 | 12 | 367 | 
CCN(C)C(=O)c1nccc(Nc2c(N[C@@H](c3nn(C)cc3C#N)C3(C)CCCC3)c(=O)c2=O)c1O [Example 30, (R)-4-((2-(((4-Cyano-1-methyl-1H-pyrazol-3-yl)(1-methylcyclopentyl)methyl)amino)-3,4-dioxocyclobut-1-en-1-yl)amino)-N-ethyl-3-hydroxy-N-methylpicolinamide] | 4030 | 96.1 | 42 | 
CC(C)N(C)C(=O)c1nccc(Nc2c(N[C@@H](c3nn(C)cc3C#N)C3(C)CCCC3)c(=O)c2=O)c1O [Example 31, (R)-4-((2-(((4-cyano-1-methyl-1H-pyrazol-3-yl)(1-methylcyclopentyl)methyl)amino)-3,4-dioxocyclobut-1-en-1-yl)amino)-3-hydroxy-N-isopropyl-N-methylpicolinamide] | 2750 | 45.4 | 60 | 
CC[C@@H](Nc1c(Nc2ccnc(C(=O)N(C)C)c2O)c(=O)c1=O)c1cccc(C2CC2)c1 [Example 120, reference compound] |  |  |  | IC50 (CXCR2; Table 15, WO 2010/131145 comparator compounds, read-out: IC50 (nM) CXCR2 Neutrophil, GROα Chemotaxis): 5.7 nM; IC50 (CCR6; Table 15, WO 2010/131145 comparator compounds, read-out: IC50 (nM) CCR6 T cell, CCL20 Chemotaxis): 388 nM
CN(C)C(=O)c1nccc(Nc2c(NC(c3ccn(C)n3)C3(C)CCCC3)c(=O)c2=O)c1O (stereo not shown) [drawing 179 (R = H), reference compound] |  |  |  | IC50 (CXCR2; [3]): 42.1 nM; R = H, T Cell Chemotaxis Selectivity (CCR6; Table 14, R = H): 2.2; IC50 (CCR6; [4]): 19.2 nM
Cc1nc([C@H](Nc2c(Nc3ccnc(C(=O)N(C)C)c3O)c(=O)c2=O)C2(C)CCCC2)cs1 [drawing 180 (R = H), reference compound] |  |  |  | IC50 (CXCR2; [3]): 346 nM; R = H, T Cell Chemotaxis Selectivity (CCR6; Table 14, R = H): 10.8; IC50 (CCR6; [4]): 32.1 nM
Cc1nc([C@H](Nc2c(Nc3ccnc(C(=O)N(C)C)c3O)c(=O)c2=O)C2(C)CCCC2)co1 [drawing 181 (R = H), reference compound] |  |  |  | IC50 (CXCR2; [3]): 12.2 nM; IC50 (CCR6; [4]): 64.5 nM

Now from value to compound, other results behind:

IC50 (CXCR2; [1]) [nM] | IC50 (CCR6; [2]) [nM] | T Cell Chemotaxis Selectivity (CCR6) | Structure (SMILES) | other results
1010 | 3.1 | 325 | Cc1nc([C@H](Nc2c(Nc3ccnc(C(=O)N(C)C)c3O)c(=O)c2=O)C2(C)CCC2)c(C)s1 [Example 24, (R)-4-((2-(((2,5-Dimethylthiazol-4-yl)(1-methylcyclobutyl)-methyl)amino)-3,4-dioxocyclobut-1-en-1-yl)amino)-3-hydroxy-N,N-dimethylpicolinamide] | 
332 | 2.7 | 123 | Cc1nc([C@H](Nc2c(Nc3ccnc(C(=O)N(C)C)c3O)c(=O)c2=O)C2(C)CCCC2)c(C)s1 [Example 32, (R)-4-((2-(((2,5-Dimethylthiazol-4-yl)(1-methylcyclopentyl)-methyl)amino)-3,4-dioxocyclobut-1-en-1-yl)amino)-3-hydroxy-N,N-dimethylpicolinamide] | IC50 (CXCR2; Table 14, R = CH3, read-out: R = CH3, IC50 (nM) CXCR2 Neutrophil, GROα Chemotaxis): 332 nM; R = CH3, T Cell Chemotaxis Selectivity (CCR6; Table 14, R = CH3): 123; IC50 (CCR6; Table 14, R = CH3, read-out: R = CH3, IC50 (nM) CCR6 T cell, CCL20 Chemotaxis): 2.7 nM
69.9 | 4.4 | 16 | COc1sc(C)nc1[C@H](Nc1c(Nc2ccnc(C(=O)N(C)C)c2O)c(=O)c1=O)C1(C)CCCC1 [Example 33, (R)-3-Hydroxy-4-((2-(((5-methoxy-2-methylthiazol-4-yl)(1-methylcyclopentyl)methyl)amino)-3,4-dioxocyclobut-1-en-1-yl)amino)-N,N-dimethylpicolinamide] | 
3630 | 5.2 | 698 | CCc1cn(C)nc1[C@H](Nc1c(Nc2ccnc(C(=O)N(C)C)c2O)c(=O)c1=O)[C@]1(C)CC(F)(F)CO1 [Example 37, 4-((2-(((S)-((S)-4,4-Difluoro-2-methyltetrahydrofuran-2-yl) (4-ethyl-1-methyl-1H-pyrazol-3-yl)methyl)amino)-3,4-dioxocyclobut-1-en-1-yl)amino)-3-hydroxy-N,N-dimethylpicolinamide] | 
3460 | 12.6 | 274 | Cc1nc([C@H](Nc2c(Nc3ccnc(C(=O)N(C)C)c3O)c(=O)c2=O)[C@]2(C)CC(F)(F)CO2)c(C)s1 [Example 38, 4-((2-(((S)-((S)-4,4-Difluoro-2-methyltetrahydrofuran-2-yl) (2,5-dimethylthiazol-4-yl)methyl)amino)-3,4-dioxocyclobut-1-en-1-yl)amino)-3-hydroxy-N,N-dimethylpicolinamide] | 
